Assay results from EPA's ToxValDB 9.5.

Tested on: Rattus norvegicus
Conditions: oral
[1] = short-term, duration: 28 days, gavage, F, Sprague-Dawley, Clinical Observation: Salivation1000 (transient) + Body Weight Changes: Weight gain decrease + Hematology: Hgb decrease, Hct decrease, RBC …
[2] = short-term, duration: 28 days, gavage, M, Sprague-Dawley, Clinical Observation: Salivation1000 (transient) + Body Weight Changes: Weight gain decrease + Hematology: Hgb decrease, Hct decrease, RBC …
[3] = short-term, duration: 28 days, gavage, F, Sprague-Dawley
[4] = short-term, duration: 28 days, gavage, M, Sprague-Dawley
[5] = short-term, duration: 28 days, gavage, F, Sprague-Dawley, Absolute Organ Weight: Liver increase, Ovary increase, Thyroid increase + Relative Organ Weight: Ovary increase, Thyroid increase + …
[6] = short-term, duration: 28 days, gavage, M, Sprague-Dawley, Absolute Organ Weight: Liver increase, Ovary increase, Thyroid increase + Relative Organ Weight: Ovary increase, Thyroid increase + …
[7] = short-term, duration: 28 days, gavage, M/F, Clinical Observation: Salivation Soft stool Mucous stool + Body Weight Changes: Weight gain decrease + Food Consumption: decrease + …
[8] = subchronic, duration: 90 days, gavage, M/F, Wistar, Clinical Observation: Salivation + Body Weight Changes: Weight gain decrease + Food Consumption: decrease + Urinalysis: Ket increase, …

CC(C)(C)OOC(C)(C)CCC(C)(C)OOC(C)(C)C [2,5-Dimethyl-2,5-di-(tert-butylperoxy)hexane] was tested, and the LOAEL [1] was 200 mg/kg-day, the LOEL [1] was 200 mg/kg-day and the NOAEL [1] was 40 mg/kg-day. The NOEL [1] was 40 mg/kg-day, the LOAEL [2] was 1000 mg/kg-day and the LOEL [2] was 200 mg/kg-day. The NOAEL [2] was 200 mg/kg-day and the NOEL [2] was 40 mg/kg-day.
Cc1ccc(C)c(N)c1 [2,5-Dimethylaniline] was tested, and the NOEL (short-term, duration: 28 days, gavage, F, Sprague-Dawley, Clinical Observation: Staggering gait Lacrimation Salivation + Body Weight Changes: Body weight gain decrease + Food Consumption: decrease…) was 12 mg/kg-day and the NOEL (short-term, duration: 28 days, gavage, M, Sprague-Dawley, Clinical Observation: Staggering gait Lacrimation Salivation + Body Weight Changes: Body weight gain decrease + Food Consumption: decrease…) was < 12 mg/kg-day.
Compound Cc1cccc(C)c1N [2,6-Dimethylaniline] has an NOEL (subchronic, duration: 13 weeks, gavage, M/F, Fischer 344, Body Weight Changes: decrease + Hematology: WBC decrease, RBC decrease, Hgb decrease, Hct decrease, Lympho decrease + Blood Chemistry: K …) of 20 mg/kg-day.
CCCCOCCOCCO [2-(2-Butoxyethoxy)ethanol] showed an NOAEL (chronic, duration: 91 days, drinking water, M/F, Fischer 344, Body Weight Changes: Terminal body weight decrease + Food Consumption: decrease + Water Consumption: decrease + Hematology: RBC decrease, …) of 250 mg/kg-day.
CCCOCCOCCO [2-(2-Propoxyethoxy)ethanol] showed an NOAEL (subchronic, duration: 6 weeks, gavage, M, COBS, CD:BR, Clinical Observation: Narcosis(initial period only) + Body Weight Changes: Terminal body weight decrease + Food Consumption: decrease(day 3 …) of 814 mg/kg-day.
In the case of Cc1ccc(O)c(-n2nc3ccccc3n2)c1 [2-(2H-Benzotriazol-2-yl)-4-methylphenol], the NOEL (subchronic, gavage, M, Sprague-Dawley, Urinalysis: Protein increase + Blood Chemistry: PL increase + Absolute Organ Weight: Liver increase + Relative Organ Weight: Liver increase…) is reported as < 30 mg/kg-day.
Nc1cc(Cl)ccc1O [2-Amino-4-chlorophenol] gave an NOEL (subchronic, gavage, M, Sprague-Dawley, Hematology: RBC decrease, Hgb decrease, MCHC decrease, Ret increase, Hct decrease + Absolute Organ Weight: Spleen increase + Relative Organ …) of 50 mg/kg-day.
O=C(O)c1ccccc1Cl [2-Chlorobenzoic acid] gave an NOEL (subchronic, gavage, M, Sprague-Dawley, Clinical Observation: Salivation + Body Weight Changes: decrease + Food Consumption: decrease + Hematology: RBC decrease, Hgb decrease, RET …) of 40 mg/kg-day.
For N#Cc1ccccc1Cl [2-Chlorobenzonitrile], the NOEL (subchronic, gavage, M, Sprague-Dawley, Urinalysis: Ketone body increase + Hematology: APTT increase + Blood Chemistry: Cho increase, PL increase, ALT increasegamma-GTP increase, …) was 10 mg/kg-day.
For CCCCC(CC)C(=O)OOC(C)(C)C1CCCCC1 (stereo not drawn) [2-Cyclohexylpropan-2-yl 2-ethylhexaneperoxoate], the NOEL (short-term, duration: 28 days, gavage, M/F, Clinical Observation: Salivation + Blood Chemistry: GLUC decrease, TP increase, CRN decrease, BIL increase, T-CHO increase + Absolute Organ …) was < 8 mg/kg-day.
C=C(C)C(=O)NCCN1CCNC1=O [2-Methyl-N-[2-(2-oxoimidazolidin-1-yl)ethyl]prop-2-enamide] gave an NOEL (short-term, duration: 28 days, gavage, M/F, Deaths + Clinical Observation: Salivation Abnormal breathing + Relative Organ Weight: Kidney increase + Necropsy: Stomach- Raised, limiting…) of 200 mg/kg-day.
Cc1ncc[nH]1 [2-Methylimidazole] was tested, and the NOEL (subchronic, diet, M/F, Fischer 344, Body Weight Changes: decrease + Food Consumption: decrease + Hematology: Plt increase, Hct decrease, Hgb decrease, RBC decrease, Ret …) was < 60 mg/kg-day.
OCCOc1ccccc1 [2-Phenoxyethanol] was tested, and the NOAEL (subchronic, duration: 90 days, gavage, M/F, Clinical Observation: Lack of grooming Lethargy Prostration + Body Weight Changes: decrease + Food Consumption: decrease + Water Consumption…) was 80 mg/kg-day.
In the case of Cc1cc(-c2ccc(N)c(C)c2)ccc1N.Cl.Cl [3,3'-Dimethylbenzidine dihydrochloride], the NOEL (subchronic, duration: 13 weeks, drinking water, M/F, Fischer 344, Deaths + Clinical Observation: Crusty red exudate on the noses Thinness Stains on the fur + Body Weight Changes: decrease + Water …) is reported as < 45.6 mg/kg-day.
COC(CC#N)OC [3,3-Dimethoxypropiononitrile] was tested, and the NOEL (short-term, duration: 28 days, gavage, M/F, Clinical Observation: Lethargy Salivation + Body Weight Changes: body weight gain decrease + Urinalysis: Urine volume increase, pH decrease…) was < 15 mg/kg-day.
Work on O=C(Nc1ccccc1)c1cc2ccccc2cc1O [3-Hydroxy-2-naphthanilide] yielded an NOAEL [3] of 1000 mg/kg-day, an NOEL [3] of 1000 mg/kg-day and an NOAEL [4] of 1000 mg/kg-day. For the same compound, the NOEL [4] was 1000 mg/kg-day and the NOEL (subchronic, gavage, Sprague-Dawley) was 1000 mg/kg-day.
CCCC1CCC(C2CCC(=O)CC2)CC1 (stereo not drawn) [4'-Propyl[1,1'-bi(cyclohexane)]-4-one] showed an NOEL (short-term, duration: 28 days, gavage, M/F, Clinical Observation: Salivation + Blood Chemistry: IP increase, CRN increase, GPT increase, BIL increase, TP increase, T-CHO increase, …) of 8 mg/kg-day.
CC(C)(C)c1cc(Cc2cc(C(C)(C)C)c(O)c(C(C)(C)C)c2)cc(C(C)(C)C)c1O [4,4'-Methylenebis(2,6-di-t-butylphenol)] gave an LOEL [5] of 200 mg/kg-day, an NOEL [5] of 40 mg/kg-day and an LOEL [6] of 1000 mg/kg-day. It also gave an NOEL [6] of 200 mg/kg-day.
In the case of CC(C)(c1ccc(O)cc1)c1cc(C(C)(C)c2ccc(O)cc2)c(O)cc1O [4,6-Bis[2-(4-hydroxyphenyl)propan-2-yl]benzene-1,3-diol], the NOAEL [7] is reported as 20 mg/kg-day and the NOEL [7] is reported as < 5 mg/kg-day.
Cl.Nc1ccc(Cl)cc1 [4-Chloroaniline hydrochloride] was tested, and the NOEL (subchronic, duration: 13 weeks, gavage, M/F, Fischer 344, Deaths + Body Weight Changes: decrease + Hematology: WBC increase, Lympho increase, Hct decrease, Hgb decrease, Methemoglobin increase, RBC …) was < 5 mg/kg-day.
O=Cc1ccc(Cl)cc1 [4-Chlorobenzaldehyde] showed an NOEL (short-term, duration: 28 days, gavage, F, Sprague-Dawley, Clinical Observation: Salivation Tremor Soiled perigenital fur + Functional Observational Battery: Motor activity decrease + Body Weight …) of 40 mg/kg-day and an NOEL (short-term, duration: 28 days, gavage, M, Sprague-Dawley, Clinical Observation: Salivation Tremor Soiled perigenital fur + Functional Observational Battery: Motor activity decrease + Body Weight …) of 200 mg/kg-day.
CCCCCCc1ccc(O)cc1O [4-Hexylresorcinol] was tested, and the NOEL (subchronic, duration: 13 weeks, gavage, M/F, Fischer 344, Deaths + Clinical Observation: Death + Body Weight Changes: decrease + Histopathology: Testis-Hypospermatogenesis Seminal vesicles-…) was < 62.5 mg/kg-day.
With CC1(C)CC(O)CC(C)(C)N1[O] [4-Hydroxy-2,2,6,6-tetramethylpiperidin-1-yl)oxidanyl] the NOEL (short-term, duration: 28 days, gavage, M/F, Clinical Observation: Salivation + Hematology: Trend of Anemia + Absolute Organ Weight: Spleen increase, Liver increase + Histopathology: …) was 40 mg/kg-day.
In the case of O=C(O)c1ccc([N+](=O)[O-])cc1 [4-Nitrobenzoic acid], the NOEL (subchronic, duration: 13 weeks, diet, F, Fischer 344, Body Weight Changes: decrease + Hematology: Methemoglobin increase, Hct decrease, ,Hgb decrease, RBC decrease, Heinz body increase + Blood …) is reported as 40 mg/kg-day and the NOEL (subchronic, duration: 13 weeks, diet, M/F, Fischer 344, Body Weight Changes: decrease + Hematology: Methemoglobin increase, Hct decrease, ,Hgb decrease, RBC decrease, Heinz body increase + Blood …) is reported as < 60.5 mg/kg-day.
O=[N+]([O-])c1ccc(CCl)cc1 [4-Nitrobenzyl chloride] was tested, and the NOEL (short-term, duration: 28 days, gavage, M/F, Sprague-Dawley, Clinical Observation: Salivation + Functional Observational Battery: Locomotor activity decrease + Food Consumption: decrease + Water …) was < 8 mg/kg-day.
C=CCOCCCCO [4-allyloxy-1-butanol] was tested, and the NOEL (short-term, duration: 28 days, gavage, M/F, Deaths + Clinical Observation: nasal discharge flatulence + Body Weight Changes: body weight gain decrease + Food Consumption: decrease + …) was 10 mg/kg-day.
With CC(=O)CCC=C(C)C [6-Methyl-5-hepten-2-one] the NOAEL [8] was 50 mg/kg-day and the NOEL [8] was < 50 mg/kg-day.
COc1c2occc2cc2ccc(=O)oc12 [8-Methoxypsoralen] was tested, and the NOEL (subchronic, duration: 13 weeks, gavage, M/F, Fischer 344, Deaths + Clinical Observation: Rough hair coat Hunched appearance + Body Weight Changes: decrease + Absolute Organ Weight: Liver increase + …) was < 25 mg/kg-day.
In the case of CNC[C@H](O)c1cccc(O)c1.Cl [(-)-Phenylephrine hydrochloride], the NOEL (subchronic, duration: 12 weeks, diet, M/F, Fischer 344, Deaths + Clinical Observation: Hyperexcitable + Body Weight Changes: decrease + Histopathology: Eye-Chronic keratitis Testis-Atrophy Seminal…) is reported as 240 mg/kg-day.
In the case of C=CC(=O)OCc1c(Br)c(Br)c(Br)c(Br)c1Br [(Pentabromophenyl)methyl acrylate], the NOEL (short-term, duration: 28 days, gavage, M/F, Clinical Observation: Salivation increase, Hunchback position Staggering gait Lethargy Ptosis Emacation Flush in extremities + Urinalysis: S…) is reported as < 15 mg/kg-day.
CC(=O)Nc1ccc(O)cc1 [Acetaminophen] was tested, and the NOEL (short-term, duration: 19 days, gavage, F, Wistar, Deaths + Clinical Observation: Emaciation(dead animals) Hypothermia(dead animals) Bradypnea(dead animals) Locomotor activity decrease(dead …) was 20 mg/kg-day, the NOEL (short-term, duration: 19 days, gavage, M, Wistar, Deaths + Clinical Observation: Emaciation(dead animals) Hypothermia(dead animals) Bradypnea(dead animals) Locomotor activity decrease(dead …) was 20 mg/kg-day and the NOEL (subchronic, duration: 13 weeks, diet, M/F, Fischer 344, Deaths + Clinical Observation: Dark yellow urine + Body Weight Changes: decrease + Absolute Organ Weight: Right testis decrease, Thymus …) was < 76.8 mg/kg-day.
For C=CCOC(=O)CC(C)C [Allyl isovalerate], the NOEL (subchronic, duration: 13 weeks, gavage, M/F, Fischer 344, Deaths + Body Weight Changes: decrease + Histopathology: Liver-Basophilic cytoplasmic change Liver-Multifocal coagulative necrosis Liver-…) was 31 mg/kg-day.
With C=CCOC(=O)C(=C)C [Allyl methacrylate] the NOAEL (subchronic, gavage, M, Sprague-Dawley, Clinical Observation: Hypersalivation + Body Weight Changes: Weight gain decrease + Absolute Organ Weight: Adrenal decrease, Thymus increase…) was 15 mg/kg-day.
O=C1CCCCCCCCCCCN1 [Azacyclotridecan-2-one] gave an NOAEL (subchronic, duration: 90 days, gavage, M/F, Sprague-Dawley, Deaths: None (There were dead animals caused by intubation error) + Blood Chemistry: K increase, TP increase, Alb increase + Histopathology…) of 25 mg/kg-day.
Work on O=C(Cl)c1ccccc1Cl [Benzoyl chloride, 2-chloro-] yielded an NOEL (subchronic, duration: 42 days, gavage, M, CD(SD), Clinical Observation: Salivation Soft/mucous stool Soiled perianal/perigenital fur + Body Weight Changes: Weight gain decrease + Food …) of 40 mg/kg-day.
c1ccc(COc2ccc3ccccc3c2)cc1 [Benzyl 2-naphthyl ether] was tested, and the NOEL (subchronic, gavage, M, Sprague-Dawley, Blood Chemistry: T-Bil increase + Relative Organ Weight: Liver increase + Histopathology: Kidney-Globular accumulation of eosinophilic …) was < 100 mg/kg-day.
OCc1ccccc1 [Benzyl alcohol] was tested, and the NOEL (subchronic, duration: 13 weeks, gavage, M/F, Fischer 344, Deaths + Clinical Observation: Died Staggering Labored breathing Blood around nose and mouth + Body Weight Changes: decrease + …) was 200 mg/kg-day.
